Measurements published in ChEMBL document CHEMBL4823282, “Novel Broad-Spectrum Antimicrobial Peptide Derived from Anoplin and Its Activity on Bacterial Pneumonia in Mice” (J Med Chem, 2021).
Converted amounts (≈) assume the structure as drawn. The source made the active and inactive calls. The calls are words filed in the database; no cut-off is given here. Where a SMILES comes first, the peptide text is derived from it.

How the values were obtained:
[1] = Stability in BALB/C mouse serum assessed as compound degradation time measured up to 1440 mins by HPLC analysis; assay type: ADME, cell-free; conditions: 24 h
Klebsiella pneumoniae [2] = test: Antibacterial activity against Klebsiella pneumoniae ATCC 700603 incubated with 0.2 to 0.02 ug/ml chymotrypsin for 6 hrs followed by bacterial addition and measured after 18 hrs by CLSI based broth dilution method; assay type: functional, organism-based; conditions: dose 0.2-0.02 µg/ml, time 23.0 hrs
Staphylococcus aureus [3] = test: Antibacterial activity against Staphylococcus aureus ATCC 25923 at 0.5 to 1 times MIC incubated for 24 hrs by crystal violet staining based assay; assay type: functional, organism-based
Klebsiella pneumoniae [4] = test: Antibacterial activity against Klebsiella pneumoniae ATCC 700603 incubated with 0.2 to 0.02 ug/ml trypsin for 6 hrs followed by bacterial addition and measured after 18 hrs by CLSI based broth dilution method; assay type: functional, organism-based; conditions: dose 0.2-0.02 µg/ml, time 23.0 hrs
Erythrocyte = test: Hemolytic activity in BALB/C mouse erythrocytes incubated for 1 hr by absorbance method; assay type: ADME, cell-based
[5] = Selectivity ratio of MHC10 for BALB/C mouse erythrocytes to MIC for gram positive bacteria; assay type: toxicity
Klebsiella pneumoniae [6] = test: Bactericidal activity against Klebsiella pneumoniae 700603 at 2MIC by time-kill assay relative to control; assay type: functional; conditions: 2M, TDE = time-dependent effect
[7] = Cytotoxicity against human glomerular mesangial cells incubated for 12 hrs by MTT assay; assay type: cell-based; conditions: Glomerular mesangial cell
Pseudomonas aeruginosa [8] = test: Synergistic antibacterial activity against Pseudomonas aeruginosa ATCC 27853 at 2 times MIC incubated for 18 to 24 hrs in presence of 2 times MIC of polymyxin B by broth microdilution assay based checkerboard assay; assay type: functional; conditions: time 18-24 hrs
[9] = Selectivity ratio of MHC10 for BALB/C mouse erythrocytes to MIC for fungi; assay type: toxicity
Staphylococcus aureus [10] = test: Antibacterial activity against Staphylococcus aureus ATCC 25923 incubated with 0.2 to 0.02 ug/ml chymotrypsin for 6 hrs followed by bacterial addition and measured after 18 hrs by CLSI based broth dilution method; assay type: functional, organism-based; conditions: dose 0.2-0.02 µg/ml
Bacteria [11] = test: Antibacterial activity against Gram-positive bacteria incubated for 18 hrs by CLSI based broth dilution method; assay type: functional
Bacteria [12] = test: Antibacterial activity against Gram-negative bacteria incubated for 18 hrs by CLSI based broth dilution method; assay type: functional
Bacillus subtilis = test: Antibacterial activity against Bacillus subtilis ATCC 23857 incubated for 18 hrs by CLSI based broth dilution method; assay type: functional
Escherichia coli [13] = test: Antibacterial activity against Escherichia coli ATCC 25922 incubated for 18 hrs by CLSI based broth dilution method; assay type: functional
[14] = Selectivity ratio of MHC10 for BALB/C mouse erythrocytes to MIC for gram-negative bacteria; assay type: toxicity
Klebsiella pneumoniae [15] = test: Antibiofilm activity against Klebsiella pneumoniae ATCC 700603 at 2 to 4 times MIC incubated for 24 hrs by crystal violet staining based assay; assay type: functional, organism-based
Escherichia coli [16] = test: Antibiofilm activity against Escherichia coli ATCC 25922 at 4 times MIC incubated for 24 hrs by crystal violet staining based assay; assay type: functional, organism-based
[17] = system: Staphylococcus epidermidis; test: Antibacterial activity against Staphylococcus epidermidis ATCC 12228 incubated for 18 hrs by CLSI based broth dilution method; assay type: functional
Klebsiella pneumoniae [18] = test: Antibacterial activity against Klebsiella pneumoniae ATCC 700603 incubated for 18 hrs by CLSI based broth dilution method; assay type: functional
Bacteria [19] = test: Antibacterial activity against bacteria incubated for 18 hrs by CLSI based broth dilution method; assay type: functional
Pseudomonas aeruginosa [20] = test: Antibacterial activity against Pseudomonas aeruginosa ATCC 27853 at 0.5 to 4 times MIC incubated for 24 hrs by crystal violet staining based assay; assay type: functional, organism-based
Enterococcus faecalis = test: Antibacterial activity against Enterococcus faecalis ATCC 29212 incubated for 18 hrs by CLSI based broth dilution method; assay type: functional
Staphylococcus aureus [21] = test: Disruption of bacterial cell membrane in Staphylococcus aureus ATCC 25923 assessed as increase in PI uptake incubated for 30 to 120 mins by FACS flow cytometry; assay type: functional, organism-based; conditions: time 30-120 min
Acinetobacter baumannii = test: Antibacterial activity against Acinetobacter baumannii ATCC 19606 incubated for 18 hrs by CLSI based broth dilution method; assay type: functional; conditions: ATCC 19606 = CIP 70.34 = JCM 6841
[22] = Stability in BALB/C mouse serum measured up to 1440 mins by HPLC analysis; assay type: ADME, cell-free
Cell membrane [23] = test: Disruption of membrane integrity in Staphylococcus aureus ATCC 25923 assessed as membrane shrinking at 1 times MIC measured within 0.5 hrs by scanning electron microscopy; assay type: subcellular
Staphylococcus aureus [24] = test: Antibacterial activity against Staphylococcus aureus ATCC 25923 incubated for 18 hrs by CLSI based broth dilution method; assay type: functional
Cell membrane [25] = test: Induction of inner membrane permeabilization in Klebsiella pneumoniae ATCC 700603 at 0.5 to 4MIC using ONPG as substrate by spectroscopic method; assay type: subcellular; conditions: Klebsiella pneumoniae 700603, 0.5 to 4M
Pseudomonas aeruginosa [26] = test: Antibacterial activity against Pseudomonas aeruginosa ATCC 27853 incubated for 18 hrs by CLSI based broth dilution method; assay type: functional
Staphylococcus aureus [27] = test: Disruption of membrane integrity in Staphylococcus aureus ATCC 25923 assessed as membrane blebbing at 1 times MIC measured within 0.5 hrs by scanning electron microscopy; assay type: functional, organism-based
[28] = Selectivity ratio of MHC10 for BALB/C mouse erythrocytes to MIC for bacteria; assay type: toxicity
Fungi = test: Antibacterial activity against fungi incubated for 18 hrs by CLSI based broth dilution method; assay type: functional
Cell membrane [29] = test: Disruption of membrane integrity in Staphylococcus aureus ATCC 25923 assessed as bacterial death at 1 times MIC measured within 0.5 hrs by scanning electron microscopy; assay type: subcellular
Staphylococcus aureus [30] = test: Bactericidal activity against Staphylococcus aureus ATCC 25923 at 2MIC by time-kill assay; assay type: functional, organism-based; conditions: time 24.0 hrs, TDE = time-dependent effect
Staphylococcus aureus [31] = test: Antibacterial activity against Staphylococcus aureus ATCC 25923 incubated with 0.2 to 0.02 ug/ml trypsin for 6 hrs followed by bacterial addition and measured after 18 hrs by CLSI based broth dilution method; assay type: functional, organism-based; conditions: dose 0.2-0.02 µg/ml, time 23.0 hrs
Pseudomonas aeruginosa [32] = test: Antibacterial activity against Pseudomonas aeruginosa ATCC 27853 assessed as increase in MIC at sub-MIC level after 15 passages by broth microdilution assay; assay type: functional
Pseudomonas aeruginosa [33] = test: Antibacterial activity against gentamicin-resistant Pseudomonas aeruginosa ATCC 27853 incubated for 18 hrs by CLSI based broth dilution method; assay type: functional
Pseudomonas aeruginosa [34] = test: Antibacterial activity against Pseudomonas aeruginosa ATCC 27853 incubated for 18 hrs in presence of EDTA by CLSI based broth dilution method; assay type: functional
Pseudomonas aeruginosa [35] = test: Antibacterial activity against rifampin-resistant Pseudomonas aeruginosa ATCC 27853 incubated for 18 hrs in presence of EDTA by CLSI based broth dilution method; assay type: functional
Pseudomonas aeruginosa [36] = test: Antibacterial activity against rifampin-resistant Pseudomonas aeruginosa ATCC 27853 incubated for 18 hrs by CLSI based broth dilution method; assay type: functional

With `CC[C@H](C)[C@H](NC(=O)[C@H](CCCNC(=N)N)NC(=O)[C@H](CCCCN)NC(=O)[C@H](CC(C)C)NC(=O)[C@H](CC(C)C)NC(=O)CN)C(=O)N[C@@H](CCCCN)C(=O)N[C@H](C(=O)N[C@@H](CC(C)C)C(=O)N[C@@H](CC(C)C)C(N)=O)[C@@H](C)O` [ANOPLIN] (H-GLLKRIKTLL-NH2) the Time [1] was 12.14 min, the Activity (Klebsiella pneumoniae [2]) was “Active” and the Activity (Staphylococcus aureus [3]) was “Active”. For the same molecule, the Activity (Klebsiella pneumoniae [4]) was “Active”, the MHC10 (Erythrocyte) was “>= 512 uM” and the selectivity ratio at 18 h [5] was 8. The Activity (Klebsiella pneumoniae [6]) was “Tde”, the IC50 [7] was at least 512 µM and the FIC (Pseudomonas aeruginosa [8]) was 0.5625. For the same molecule, the selectivity ratio [9] was 6.73, the Activity (Staphylococcus aureus [10]) was “inactive” and the MIC (Bacteria [11]) was 64 µM (≈ 73.8 µg/mL). The MIC (Bacteria [12]) was 90.5 µM (≈ 104 µg/mL), the MIC (Bacillus subtilis) was 8 µM (≈ 9.23 µg/mL) and the MIC (Escherichia coli [13]) was 128 µM (≈ 148 µg/mL). The selectivity ratio [14] was 5.66, the Activity (Klebsiella pneumoniae [15]) was “Active” and the Activity (Escherichia coli [16]) was “Active”. For the same molecule, the MIC [17] was 16 µM (≈ 18.5 µg/mL), the MIC (Klebsiella pneumoniae [18]) was 128 µM (≈ 148 µg/mL) and the MIC (Bacteria [19]) was 76.1 µM (≈ 87.8 µg/mL). For the same molecule, the Activity (Pseudomonas aeruginosa [20]) was “inactive”, the MIC (Enterococcus faecalis) was at least 512 µM and the Activity (Staphylococcus aureus [21]) was “Active”. For the same molecule, the MIC (Acinetobacter baumannii) was at least 512 µM, the half-life [22] was 2.24 h and the Activity (Cell membrane [23]) was “inactive”. For the same molecule, the MIC (Staphylococcus aureus [24]) was 256 µM (≈ 295 µg/mL), the Activity (Cell membrane [25]) was “inactive” and the MIC (Pseudomonas aeruginosa [26]) was 8 µM (≈ 9.23 µg/mL). For the same molecule, the Activity (Staphylococcus aureus [27]) was “inactive”, the selectivity ratio [28] was 6.73 and the MIC (Fungi) was 76.1 µM (≈ 87.8 µg/mL). The Activity (Cell membrane [29]) was “inactive”, the Activity (Staphylococcus aureus [30]) was “Tde” and the Activity (Staphylococcus aureus [31]) was “Active”.
Work on `CO[C@H]1/C=C/O[C@@]2(C)Oc3c(C)c(O)c4c(O)c(c(/C=N/N5CCN(C)CC5)c(O)c4c3C2=O)NC(=O)/C(C)=C\C=C\[C@H](C)[C@H](O)[C@@H](C)[C@@H](O)[C@@H](C)[C@H](OC(C)=O)[C@@H]1C` [RIFAMPIN] yielded an MIC (Bacillus subtilis) of under 1 µM, an MIC (Escherichia coli [13]) of 4 µM (≈ 3.29 µg/mL) and an MIC [17] of under 1 µM. For the same molecule, the MIC (Klebsiella pneumoniae [18]) was 32 µM (≈ 26.3 µg/mL), the MIC (Enterococcus faecalis) was under 1 µM and the MIC (Acinetobacter baumannii) was under 1 µM. For the same molecule, the MIC (Staphylococcus aureus [24]) was under 1 µM, the “fold change (FC)” value (Pseudomonas aeruginosa [32]) was 128 and the MIC (Pseudomonas aeruginosa [26]) was 4 µM (≈ 3.29 µg/mL). The MIC (Pseudomonas aeruginosa [33]) was 32 µM (≈ 26.3 µg/mL), the MIC (Pseudomonas aeruginosa [34]) was 2 µM and the MIC (Pseudomonas aeruginosa [35]) was 2050 µM. The MIC (Pseudomonas aeruginosa [36]) was 2050 µM (≈ 1690 µg/mL).
